Experimental findings from ChEMBL document CHEMBL1817641, “Synthesis and biological evaluation of some novel N-aryl-1,4-dihydropyridines as potential antitubercular agents” (Bioorg Med Chem Lett, 2011) are described below.

Converted amounts (≈) assume the structure as drawn.

One may read the inhibition as the drop in the measured response relative to a control, in per cent. A word on the MIC: it is the lowest concentration that inhibits growth of the organism. By IC50 is commonly meant the midpoint of a concentration-inhibition curve.

The test system of test [1] is Mycobacterium tuberculosis. The test is described as follows: Antitubercular activity against Mycobacterium tuberculosis H37Rv at 6.25 ug/mL after 4 days by MABA assay. In kind it is functional. The conditions noted are these: 96 h. On the technique in general: Alamar Blue is a resazurin reagent that responds to reducing activity.
Test [2] relates to Mycobacterium tuberculosis. Nature of the test: Antitubercular activity against Mycobacterium tuberculosis H37Rv after 4 days by MABA assay. It counts as functional. The conditions noted are these: 96 h.
The subject of another test is Vero. Nature of the test: Cytotoxicity against african green monkey Vero cells. In kind it is cell-based. The settings on record: Chlorocebus sabaeus.
Test [3] in a line: Selectivity index, ratio of IC50 for african green monkey Vero cells to MIC for Mycobacterium tuberculosis H37Rv. It counts as functional.

Turning to `CCOC(=O)C1=C(C)N(c2ccccc2)C(C)=C(C(=O)OCC)C1c1cn(-c2ccccc2)nc1-c1ccccc1`, 6.25 µg/mL produced 96% inhibition in test [1]. Also, in test [2], the MIC is 1.56 mg/L (≈ 2.85 µM). In the test on Vero, this molecule yielded a half-maximal inhibitory concentration (IC50) above 10 mg/L. For the same molecule, the “Selectivity Index” value in test [3] was above 6.4.
In test [1], `CCOC(=O)C1=C(C)N(c2ccccc2C)C(C)=C(C(=O)OCC)C1c1cn(-c2ccccc2)nc1-c1ccccc1` gave an inhibition at 6.25 µg/mL of 95%. The molecule also displayed an MIC in test [2] of 3.13 mg/L (≈ 5.57 µM). The same molecule came in with an IC50 in the test on Vero above 10 mg/L. Further, in test [3], the “Selectivity Index” value is on record as above 3.2.
In the case of `CCOC(=O)C1=C(C)N(c2cccc(C)c2)C(C)=C(C(=O)OCC)C1c1cn(-c2ccccc2)nc1-c1ccccc1`, the inhibition at 6.25 µg/mL in test [1] turned out to be 98%. The minimum inhibitory concentration (MIC) in test [2] turned out to be 1.56 mg/L (≈ 2.78 µM). For the same molecule, the IC50 with Vero was above 10 mg/L. Further, the “Selectivity Index” value in test [3] is listed as above 6.4.
For `CCOC(=O)C1=C(C)N(c2ccc(C)cc2)C(C)=C(C(=O)OCC)C1c1cn(-c2ccccc2)nc1-c1ccccc1`, the inhibition at 6.25 µg/mL in test [1] came out at 48%. The molecule also came in with an MIC in test [2] of 48 mg/L (≈ 85.5 µM).
For `CCOC(=O)C1=C(C)N(c2ccccc2Cl)C(C)=C(C(=O)OCC)C1c1cn(-c2ccccc2)nc1-c1ccccc1`, 6.25 µg/mL produced 100% inhibition in test [1]. In test [2], this molecule displayed a minimum inhibitory concentration (MIC) of 0.02 mg/L (≈ 0.0344 µM). The molecule further gave an IC50 with Vero above 10 mg/L. Moreover, the “Selectivity Index” value in test [3] was above 500.
The corresponding values for `CCOC(=O)C1=C(C)N(c2cccc(Cl)c2)C(C)=C(C(=O)OCC)C1c1cn(-c2ccccc2)nc1-c1ccccc1` are 97%, 1.56 mg/L (≈ 2.68 µM), 7.08 mg/L (≈ 12.2 µM) and 4.5.
The molecule `CCOC(=O)C1=C(C)N(c2ccc(Cl)cc2)C(C)=C(C(=O)OCC)C1c1cn(-c2ccccc2)nc1-c1ccccc1` showed an inhibition at 6.25 µg/mL in test [1] of 74%.
As for `CCOC(=O)C1=C(C)N(c2ccccc2OC)C(C)=C(C(=O)OCC)C1c1cn(-c2ccccc2)nc1-c1ccccc1`, in test [1], the inhibition at 6.25 µg/mL was 39%.
Same read-out and setting: next, `CCOC(=O)C1=C(C)N(c2cccc(OC)c2)C(C)=C(C(=O)OCC)C1c1cn(-c2ccccc2)nc1-c1ccccc1`: 55%; `CCOC(=O)C1=C(C)N(c2ccc(OC)cc2)C(C)=C(C(=O)OCC)C1c1cn(-c2ccccc2)nc1-c1ccccc1`: 33%.
`CC(=O)C1=C(C)N(c2ccccc2)C(C)=C(C(C)=O)C1c1cn(-c2ccccc2)nc1-c1ccccc1` yielded an inhibition at 6.25 µg/mL in test [1] of 48%.
In test [1], `CC(=O)C1=C(C)N(c2ccccc2C)C(C)=C(C(C)=O)C1c1cn(-c2ccccc2)nc1-c1ccccc1` returned an inhibition at 6.25 µg/mL of 97%. This molecule came in with an MIC in test [2] of 3.13 mg/L (≈ 6.24 µM). In the test with Vero, this molecule returned a concentration for half-maximal inhibition (IC50) above 10 mg/L. For the same molecule, the “Selectivity Index” value in test [3] is on record as above 3.2.
The molecule `CC(=O)C1=C(C)N(c2cccc(C)c2)C(C)=C(C(C)=O)C1c1cn(-c2ccccc2)nc1-c1ccccc1` returned an inhibition at 6.25 µg/mL in test [1] of 98%. This molecule also displayed an MIC in test [2] of 6.25 mg/L (≈ 12.5 µM). This molecule displayed a half-inhibitory concentration (IC50) in the test with Vero above 10 mg/L. Besides, in test [3], the “Selectivity Index” value was above 1.6.
Molecule `CC(=O)C1=C(C)N(c2ccc(C)cc2)C(C)=C(C(C)=O)C1c1cn(-c2ccccc2)nc1-c1ccccc1` returned an inhibition at 6.25 µg/mL in test [1] of 34%.
On the same count and under the same terms, next, `CC(=O)C1=C(C)N(c2ccccc2Cl)C(C)=C(C(C)=O)C1c1cn(-c2ccccc2)nc1-c1ccccc1`: 59%; `CC(=O)C1=C(C)N(c2cccc(Cl)c2)C(C)=C(C(C)=O)C1c1cn(-c2ccccc2)nc1-c1ccccc1`: 76%; `CC(=O)C1=C(C)N(c2ccc(Cl)cc2)C(C)=C(C(C)=O)C1c1cn(-c2ccccc2)nc1-c1ccccc1`: 29%.
Same read-out and setting: as for `COc1ccccc1N1C(C)=C(C(C)=O)C(c2cn(-c3ccccc3)nc2-c2ccccc2)C(C(C)=O)=C1C`, the figure is 25%.
In turn, `COc1cccc(N2C(C)=C(C(C)=O)C(c3cn(-c4ccccc4)nc3-c3ccccc3)C(C(C)=O)=C2C)c1` came in with an inhibition at 6.25 µg/mL in test [1] of 77%.
Still for that read-out and setting: as for `COc1ccc(N2C(C)=C(C(C)=O)C(c3cn(-c4ccccc4)nc3-c3ccccc3)C(C(C)=O)=C2C)cc1`, the figure is 69%.
`NNC(=O)c1ccncc1` [ISONIAZID] yielded an MIC in test [2] of 0.03 mg/L (≈ 0.219 µM).
